Like-named read-outs stand apart in the source and are kept apart here.
Key:
primary rat microglia [1] = test system: primary rat microglia;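 for Fibrin % cell toxicity: share of dead cells sized under 150 µm2 at 10 µM in fibrin-stimulated microglia HTS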
[2] = test system: LPS-induced microglia activation; assay: Image-based assay of LPS-induced microglia activation (HTS and dose response); assay type: cell-based, rat
primary rat microglia [3] = test system: primary rat microglia; remark: listed apart in the source;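 for Fibrin % cell toxicity: share of dead cells sized under 150 µm2 at 10 µM in fibrin-stimulated microglia HTS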
[4] = test system: fibrin-induced microglia activation; assay: Image-based assay of fibrin-induced microglia activation (HTS and dose response); assay type: cell-based, rat; details: for inhibition at 10 µM: Rattus norvegicus, Microglia, read-out: Fibrin % inhibition
[5] = test system: fibrin- and LPS-induced microglia activation; assay: cells; assay type: cell-based, rat
[6] = Rattus norvegicus, Microglia, primary HTS, 10 μM, LPS-stimulated primary microglia; read-out: LPS % inhibition
[7] = primary HTS, 10 μM, fibrin-stimulated primary microglia
[8] = Rattus norvegicus, Microglia, 48 h, read-out: LPS % inhibition
[9] = Rattus norvegicus, Microglia, primary microglia HTS, LPS stimulation, compounds at 10 μM; read-out: LPS % inhibition
[10] = primary microglia HTS, fibrin stimulation, compounds at 10 μM
[11] = Rattus norvegicus, Microglia, 48 h; read-out: LPS % inhibition
[12] = primary microglia HTS, fibrin stimulation, cell size >800 μm2 as marker of activation
[13] = classification by fibrin and LPS inhibition in HTS

CC(=O)Oc1ccc(C(c2ccc(OC(C)=O)cc2)c2ccccn2)cc1 [Bisacodyl]
LPS % cell toxicity (primary rat microglia [1]; rat): 0%
inhibition at 10 µM [2, 6]: 8%
Fibrin % cell toxicity (primary rat microglia [3]; rat): 0%
inhibition at 10 µM [4, 7]: 10%
Quadrant (FIG. 5b) ([5]; primary HTS, 10 μM): Q4

CNC[C@H](O)c1cccc(O)c1 [Phenylephrine]
LPS % cell toxicity (primary rat microglia [1]; rat): 0%
inhibition at 10 µM [2, 8]: 31%
Fibrin % cell toxicity (primary rat microglia [3]; rat): 1%
inhibition at 10 µM [4]: 38%
Quadrant (FIG. 5b) [5]: Q4

CO[C@H]1/C=C/O[C@@]2(C)Oc3c(C)c(O)c4c(O)c(c(/C=N/N5CCN(C)CC5)c(O)c4c3C2=O)NC(=O)/C(C)=C\C=C\[C@H](C)[C@H](O)[C@@H](C)[C@@H](O)[C@@H](C)[C@H](OC(C)=O)[C@@H]1C [Rifampin]
LPS % cell toxicity (primary rat microglia [1]; rat): 0%
LPS % inhibition [2]: 20%
Fibrin % cell toxicity (primary rat microglia [3]; rat): 1%
Fibrin % inhibition [4]: 8%
Quadrant (FIG. 5b) [5]: Q4

O=C1CN(/N=C/c2ccc(-c3ccc([N+](=O)[O-])cc3)o2)C(O)=N1 [Dantrolene]
LPS % cell toxicity (primary rat microglia [1]; rat): 0%
inhibition at 10 µM [2, 9]: 14%
Fibrin % cell toxicity (primary rat microglia [3]; rat): 1%
inhibition at 10 µM [4, 10]: -6%
Quadrant (FIG. 5b) ([5]; classification by fibrin and LPS inhibition, HTS at 10 μM): Q4

O=P1(N(CCCl)CCCl)NCCCO1 (stereo not shown)
LPS % cell toxicity (primary rat microglia [1]): 0%
LPS % inhibition ([2]; 10 µM): 12%
Fibrin % cell toxicity (primary rat microglia [3]): 0%
Fibrin % inhibition ([4]; 10 µM): −15%
Quadrant (FIG. 5b) [5]: Q4

CCN(CC)CCNC(=O)c1c(C)[nH]c(/C=C2\C(=O)Nc3ccc(F)cc32)c1C [Sunitinib]
LPS % cell toxicity (primary rat microglia [1]; rat): 27%
inhibition at 10 µM [2, 9]: 101%
Fibrin % cell toxicity (primary rat microglia [3]; rat): 75%
inhibition at 10 µM [4, 10]: 106%
Quadrant (FIG. 5b) ([5]; quadrant by fibrin and LPS inhibition, HTS at 10 μM): Q2

CCOP(=S)(OCC)Oc1nc(Cl)c(Cl)cc1Cl [Chlorpyrifos]
LPS % cell toxicity (primary rat microglia [1]; rat): 0%
inhibition at 10 µM [2, 6]: 1%
Fibrin % cell toxicity (primary rat microglia [3]; rat): 1%
inhibition at 10 µM [4, 7]: -7%
Quadrant (FIG. 5b) ([5]; primary HTS, 10 μM): Q4

CC1=C(CC(=O)O)c2cc(F)ccc2/C1=C\c1ccc([S+](C)[O-])cc1 (stereo not shown) [Sulindac]
LPS % cell toxicity (primary rat microglia [1]; rat): 0%
inhibition at 10 µM ([2]; Rattus norvegicus, Microglia, primary microglia HTS, 10 μM, LPS-stimulated, cell size >800 μm^2 as marker of activation; read-out: LPS % inhibition): 6%
Fibrin % cell toxicity (primary rat microglia [3]; rat): 1%
inhibition at 10 µM ([4]; primary microglia HTS, 10 μM, fibrin-stimulated, cell size >800 μm^2 as marker of activation): 21%
Quadrant (FIG. 5b) ([5]; HTS of 1907 compounds, quadrant by fibrin and LPS inhibition): Q4

CCCCCCCCCCCCCCCC(=O)OC/C=C(C)/C=C/C=C(C)/C=C/C1=C(C)CCCC1(C)C [Retinyl Palmitate]
LPS % cell toxicity (primary rat microglia [1]; rat): 0%
inhibition at 10 µM [2, 11]: 11%
Fibrin % cell toxicity (primary rat microglia [3]; rat): 0%
inhibition at 10 µM [4, 12]: -15%
Quadrant (FIG. 5b) [5, 13]: Q4

Cl[C@H]1[C@H](Cl)[C@@H](Cl)[C@@H](Cl)[C@H](Cl)[C@H]1Cl [Lindane]
LPS % cell toxicity (primary rat microglia [1]; rat): 0%
inhibition at 10 µM ([2]; Rattus norvegicus, Microglia, 48 h, primary microglia HTS, LPS stimulation, activation = cell size >800 μm2; read-out: LPS % inhibition): 11%
Fibrin % cell toxicity (primary rat microglia [3]; rat): 0%
inhibition at 10 µM ([4]; primary microglia HTS, fibrin stimulation, activation = cell size >800 μm2): 42%
Quadrant (FIG. 5b) ([5]; quadrant by fibrin and LPS inhibition in HTS of 1907 compounds): Q4

COc1ccc2cc3[n+](cc2c1OC)CCc1cc2c(cc1-3)OCO2 [Berberine]
LPS % cell toxicity (primary rat microglia [1]; rat): 0%
inhibition at 10 µM [2, 6]: 4%
Fibrin % cell toxicity (primary rat microglia [3]; rat): 0%
inhibition at 10 µM [4, 7]: -62%
Quadrant (FIG. 5b) ([5]; primary HTS, 10 μM): Q4

OCCN1CCN(CCCN2c3ccccc3Sc3ccc(C(F)(F)F)cc32)CC1 [Fluphenazine]
LPS % cell toxicity (primary rat microglia [1]; rat): 0%
inhibition at 10 µM [2, 8]: 20%
Fibrin % cell toxicity (primary rat microglia [3]; rat): 1%
inhibition at 10 µM [4]: 7%
Quadrant (FIG. 5b) [5]: Q4

CC[C@H]1OC(=O)[C@H](C)[C@@H](O[C@H]2C[C@@](C)(OC)[C@@H](O)[C@H](C)O2)[C@H](C)[C@@H](O[C@@H]2O[C@H](C)C[C@H](N(C)C)[C@H]2O)[C@](C)(OC)C[C@@H](C)C(=O)[C@H](C)[C@@H](O)[C@]1(C)O [Clarithromycin]
LPS % cell toxicity (primary rat microglia [1]; rat): 0%
inhibition at 10 µM [2, 6]: 18%
Fibrin % cell toxicity (primary rat microglia [3]; rat): 1%
inhibition at 10 µM [4, 7]: -7%
Quadrant (FIG. 5b) ([5]; primary HTS, 10 μM): Q4

Nc1nc2[nH]cc(CCc3ccc(C(=O)N[C@@H](CCC(=O)O)C(=O)O)cc3)c2c(=O)[nH]1 [Pemetrexed]
LPS % cell toxicity (primary rat microglia [1]; rat): 0%
inhibition at 10 µM [2, 11]: 9%
Fibrin % cell toxicity (primary rat microglia [3]; rat): 0%
inhibition at 10 µM [4, 12]: -8%
Quadrant (FIG. 5b) [5, 13]: Q4

From patent US20210330611A1, “THERAPY FOR NEUROLOGICAL DISEASES/DISORDERS” (priority 2020, published 2021)
